# Measured values from publication PMC11574021, “CEP192 localises mitotic Aurora-A activity by priming its interaction with TPX2” (The EMBO Journal, 2024).
# Columns and labels:
# Aurora-A CAKD = molecular target: T1, Aurora-A CAKD (Homo sapiens, UniProt O14965, C290A/C393A); assay: Fluorescence anisotropy competition with FAM-TACC3 522-536; assay type: binding; details: in words
# T1 construct: 25 μM Aurora-A kinase domain (phosphorylated or unphosphorylated C290A C393A 122–403); His (N, cleaved yes); made in house; host or cells: E. coli
# T1 sequence (O14965 122-403 C290A/C393A): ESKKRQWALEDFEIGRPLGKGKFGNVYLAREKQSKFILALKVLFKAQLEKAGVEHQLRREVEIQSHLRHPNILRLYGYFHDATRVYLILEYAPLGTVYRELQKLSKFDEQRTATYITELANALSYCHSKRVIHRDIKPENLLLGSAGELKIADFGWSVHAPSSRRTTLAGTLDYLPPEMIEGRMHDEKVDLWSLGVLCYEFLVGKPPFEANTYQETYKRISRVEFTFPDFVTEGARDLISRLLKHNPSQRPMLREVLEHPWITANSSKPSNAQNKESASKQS
# Procedure: Assays were performed in 25 mM HEPES pH 7.5, 150 mM NaCl, 2 mM DTT, 5 mM MgCl2, 0.01% Tween 20. For CEP192 and TPX2 competition assays 10 μM Aurora-A kinase domain (phosphorylated or unphosphorylated C290A C393A 122–403) was preincubated on ice with 100 nM FAM-TPX2 7-43 or 100 nM FAM-CEP192 501–533. For TACC3 competition, due to weaker binding, 25 μM Aurora-A kinase domain (phosphorylated or unphosphorylated C290A C393A 122–403) was preincubated with 100 nM FAM-TACC3 522-536. Serial dilutions of competitor (CEP192) were performed in triplicate into a low volume 384-well black plate, before the premixed Aurora-A and tracer were added. A control row included no tracer. Plates were left incubating for 1 h at room temperature before the fluorescence anisotropy was measured using a HIDEX plate reader, with excitation at 485 nm and emission at 535 nm. […]
# (§1) Fluorescence anisotropy data were processed using Microsoft Excel to calculate intensity and anisotropy using the equation listed in (Yeo et al, [2013]). The IC50 and Kd values were calculated using Origin (OriginLab) where the data fitted to a sigmoid and are summarised in Appendix Table S3.
# [1] = molecular target: T2, unphosphorylated Aurora-A CAKD (Homo sapiens, UniProt O14965, C290A/C393A); assay: Fluorescence anisotropy competition with FAM-TPX2 7-43; assay type: binding; details: in words, Aurora-A CAKD
# T2 construct: 10 μM Aurora-A kinase domain (phosphorylated or unphosphorylated C290A C393A 122–403); His (N, cleaved yes); made in house; host or cells: E. coli RIL, co-expressed with lambda phosphatase
# T2 sequence (O14965 122-403 C290A/C393A): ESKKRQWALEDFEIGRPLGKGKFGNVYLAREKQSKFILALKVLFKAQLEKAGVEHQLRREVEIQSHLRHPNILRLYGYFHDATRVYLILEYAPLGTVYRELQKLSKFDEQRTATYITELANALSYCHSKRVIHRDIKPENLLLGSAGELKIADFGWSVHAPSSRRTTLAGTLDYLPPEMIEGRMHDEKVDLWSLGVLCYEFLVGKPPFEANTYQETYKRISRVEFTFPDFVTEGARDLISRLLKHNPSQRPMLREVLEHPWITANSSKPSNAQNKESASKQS
# Procedure: Assays were performed in 25 mM HEPES pH 7.5, 150 mM NaCl, 2 mM DTT, 5 mM MgCl2, 0.01% Tween 20. For CEP192 and TPX2 competition assays 10 μM Aurora-A kinase domain (phosphorylated or unphosphorylated C290A C393A 122–403) was preincubated on ice with 100 nM FAM-TPX2 7-43 or 100 nM FAM-CEP192 501–533. For TACC3 competition, due to weaker binding, 25 μM Aurora-A kinase domain (phosphorylated or unphosphorylated C290A C393A 122–403) was preincubated with 100 nM FAM-TACC3 522-536. Serial dilutions of competitor (CEP192) were performed in triplicate into a low volume 384-well black plate, before the premixed Aurora-A and tracer were added. A control row included no tracer. Plates were left incubating for 1 h at room temperature before the fluorescence anisotropy was measured using a HIDEX plate reader, with excitation at 485 nm and emission at 535 nm. For direct binding experiments, the assay was performed as above, but the Aurora-A (122–403 C290A C393A or point mutants) was diluted across the plate from high to low concentration, before the addition of 50 nM tracer (FAM-CEP192 501–533) to three replicate rows. Buffer only was added to the control row.
# as §1
# [2] = molecular target: T3, phosphorylated Aurora-A CAKD (Homo sapiens, UniProt O14965, C290A/C393A); assay: ADP-Glo kinase assay, kemptide substrate; assay type: biochemical; details: ADP-Glo, phosphorylated Aurora-A CAKD, kemptide; in words
# T3 construct: 10 nM Aurora-A 122–403 C290A C393A phosphorylated protein; His (N, cleaved yes); made in house; host or cells: E. coli B834 (no lambda phosphatase)
# T3 sequence (O14965 122-403 C290A/C393A): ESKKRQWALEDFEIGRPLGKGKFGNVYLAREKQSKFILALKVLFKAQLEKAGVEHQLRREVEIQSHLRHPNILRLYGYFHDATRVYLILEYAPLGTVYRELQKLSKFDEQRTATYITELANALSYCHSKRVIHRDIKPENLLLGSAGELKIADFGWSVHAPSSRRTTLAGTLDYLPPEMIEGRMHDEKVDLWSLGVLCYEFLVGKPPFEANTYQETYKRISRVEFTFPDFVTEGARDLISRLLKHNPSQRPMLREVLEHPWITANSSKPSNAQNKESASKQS
# Procedure: Reactions were initiated by the addition of 10 μM ATP and 100 μM kemptide as substrate (Cambridge Bioscience Ltd). The reactions were incubated at room temperature for 60 min before 5 μl was transferred into 5 ul of ADP-Glo Reagent (Promega) in a 384-well low volume low binding plate (Greiner Bio-one). After a further 40 min at room temperature, 10 μl of kinase detection reagent was added to each well, and the reaction was allowed to incubate for an additional 30 min. Luminescence was measured on a HIDEX Sense plate reader (HIDEX) using a 1 s integration time. Control data was subtracted from the luminescence and three repeats were averaged before being fitted to a sigmoidal plot using Origin (OriginLab), where IC50 and EC50 values were calculated.
# [3] = system: PLK1-pT210 in RPE1 p53-/- cells; assay: Western blot densitometry, PLK1-pT210, RPE1 p53-/-; assay type: cell-based, Homo sapiens; details: mitotic RPE1 p53-/- lysates, inhibitor 30 min
# Procedure: (§2) For measuring monopolar spindle diameter and counting centriolar foci by immunofluorescence, cells were treated with 10 µM STLC for 1 h and 4 h prior to fixation, respectively.
# (§3) Drugs were resuspended in DMSO to the stock concentrations indicated in square brackets.
# (§4) Cells were lysed on ice for 30 min in lysis buffer (50 mM tris pH 8.0, 300 mM NaCl, 0.2%(v/v) NP-40, 10%(v/v) glycerol, protease inhibitor cocktail C, phosphatase inhibitor cocktail 3 (Sigma, 1:200 dilution), 100 nM okadaic acid (Enzo, ALX-350-003-C100)). Lysates were then centrifuged at 14,000 × g, 15 min, 4 °C, the supernatants were transferred to a fresh tube, and the pellet was discarded. Protein concentrations were measured by Bradford assay using Protein Assay Dye Reagent Concentrate (Bio-Rad Laboratories, 5000006). NuPage LDS sample buffer, supplemented with NuPAGE sample reducing agent (Invitrogen) were added prior to boiling for 10 min at 90 °C. […] Nitrocellulose was then blocked in 5% milk (wt/v) in TBS, 0.1% Tween (v/v) (TBST) for 1 h. Primary and secondary antibodies were diluted in 5% milk, TBST and incubated overnight at 4 °C or for 1 h at room temperature, respectively. […]
# (§5) Densitometric quantification of western blots was also performed in ImageJ. Intensity was measured in a rectangular region of interest (ROI) around each band. […] An adjacent region was also measured to account for background intensity.
# [4] = system: TCTP-pS46 in RPE1 p53-/- cells; assay: Western blot densitometry, TCTP-pS46, RPE1 p53-/-; assay type: cell-based, Homo sapiens; details: mitotic RPE1 p53-/- lysates, inhibitor 30 min
# Procedure: as §2, §3, §4, §5
# Aurora-A (Homo sapiens) = Aurora-A (Homo sapiens) (UniProt O14965); assay: fluorescence polarisation; details: cited from earlier work
# Chain of Aurora-A (Homo sapiens) (O14965 whole entry): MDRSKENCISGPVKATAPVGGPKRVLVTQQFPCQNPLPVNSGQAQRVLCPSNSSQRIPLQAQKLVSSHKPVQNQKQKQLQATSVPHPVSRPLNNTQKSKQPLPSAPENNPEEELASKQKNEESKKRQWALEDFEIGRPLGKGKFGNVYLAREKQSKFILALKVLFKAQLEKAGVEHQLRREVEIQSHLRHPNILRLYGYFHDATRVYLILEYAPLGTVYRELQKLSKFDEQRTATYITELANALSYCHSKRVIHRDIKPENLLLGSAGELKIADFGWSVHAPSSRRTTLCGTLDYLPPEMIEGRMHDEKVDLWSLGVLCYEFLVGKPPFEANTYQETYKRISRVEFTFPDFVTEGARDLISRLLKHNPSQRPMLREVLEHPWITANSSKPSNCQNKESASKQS
molecule,measurement,setting,value
"IWSPTCERRTCECHESIEKNKDKTDLPQSVVYQNEEGRWVTDLAYYTSFNSKQNLNVSLSDEMNEDFRSGSEAFDLIAQDEEEFNKEHQFIQ [CEP192 442-533, recombinant human CEP192 aa 442–533]",competition for binding with FAM-TACC3 522-536,Aurora-A CAKD,competed for binding with FAM-TACC3_522-536
same,competition for binding with FAM-TPX2 7-43,[1],competed for binding with FAM-TPX2_7-43
same,effect on Aurora-A kinase activity,[2],partially inhibited the activity
CC[C@@H]1C(=O)N(C)c2cnc(Nc3ccc(C(=O)NC4CCN(C)CC4)cc3OC)nc2N1C1CCCC1 [BI2536],T-loop phosphorylation of PLK1 (pT210),[3],decreased
same,phosphorylation of TCTP (pS46),[4],decreased
TACC3 519-563 (from UniProt Q9Y6A5),Kd,Aurora-A (Homo sapiens),6 µM
